The values below come from article PMC7551771, “In-Depth In Silico Search for Cuttlefish (Sepia officinalis) Antimicrobial Peptides Following Bacterial Challenge of Haemocytes” (Marine Drugs, 2020).

Like-named read-outs stand apart in the source and are kept apart here. No end group written: not given here. Where only a bound is given, the exact number is not on record here.

The test system of data set [1] is V. splendidus (CIP 107715). Nature of the data set: microbe, parasite or virus in culture. Type of data set: cell-based, Vibrio splendidus. The method, then:
(§1) The minimal growth inhibitory concentrations (MICs) of synthetic peptides (Genecust) were evaluated on Vibrio alginolyticus (CIP 109819), V. splendidus (CIP 107715), V. aestuerianus (CIP 102971), V. anguillarum (CIP 64.14), V. parahaemolyticus (CIP 73.30), Halomonas aquamarina (CIP 105454T), Escherichia coli (CIP 54.8T), Aeromonas salmonicida (CIP 103209T), Enteroccocus faecalis (CIP 76.117) and Lactococcus garvieae (CIP 104369) obtained from the “Collection de l’Institut Pasteur”. Bacteria were cultured in adapted media: Homemade marine broth (HMB, sea salts 20 g/L, peptone 5 g/L, yeast extract 3 g/L) for Vibrio species and H. aquamarina; Luria-Bertani (peptone 10 g/L, yeast extract 5 g/L, NaCl 10 g/L) for E. faecalis and E. coli; Trypticasein Soy Broth (TSB, Conda, 40 g/L) for A. salmonicida, and Brain Heart Infusion (BHI) (Conda, 37 g/L) for L. garvieae. MICs were determined in triplicate by liquid growth inhibition assays adapted from Hetru and Bulet. Briefly, 10 µL of peptide solution were incubated in Bioscreen honeycomb-well plates with 90 µl of bacterial suspension at a starting OD600 of 0.001 in BHI for L. garvieae, poor broth (peptone 10 g/L, NaCl 5 g/L) for E. faecalis and E. coli, TSB for A. salmonicida, HMB for H. aquamarina and saline poor broth (peptone 10 g/L, NaCl 15 g/L) for Vibrio species. Bacterial growth was monitored for 16 h by measuring OD600 values every 5 min (Bioscreen C, Labsystem, Finland). The peptides were tested alone at concentrations of 5 µM, 10 µM, 20 µM and 50 µM. For synergy, peptides pairs were tested at concentrations of 5 µM, 10 µM and 20 µM. Oxytetracycline at 5 µM and 10 µM was used as a positive control, and water was used as a blank. MICs were expressed in µM as an [a]–[b] concentration interval where [a] was the last concentration with bacterial growth and [b] was the first concentration with 100% bacterial growth inhibition. MBCs (minimal bactericidal concentrations) were expressed in µM as an [a]–[b] concentration interval where [a] was the last concentration with bacterial growth and [b] was the first concentration that killed 100% of the bacteria.

For a further data set, the system named is human red blood cells. Type of data set: cell-based. The method, then: The haemolytic activity of the synthetic peptides was determined in triplicate on human red blood cells (RBCs) as described by Duval and collaborators. Briefly, RBCs were pelleted and washed three times in phosphate-buffered saline (PBS). Then, they were resuspended in PBS to obtain a 1% solution of RBC. Ten microliters of peptide solution were incubated with 90 µL of the RBC 1% solution for 1 h at 37 °C. The peptides were diluted in PBS and tested at different concentrations: 5 µM, 20 µM, 50 µM and 100 µM. Haemolytic activity was determined by measuring the OD at 415 nm. Zero haemolysis and total (100%) haemolysis were determined with PBS and 1% Triton X-100 solutions, respectively.

For data set [2], the system named is V. parahaemolyticus (CIP 73.30). Kind of data set: microbe, parasite or virus in culture. Type of data set: cell-based, Vibrio parahaemolyticus. The conditions noted are these: for MIC: read-out: MIC Vibrio parahaemo-lyticus. The method, then: as §1
For data set [3], the system named is V. anguillarum (CIP 64.14). Nature of the data set: microbe, parasite or virus in culture. Type of data set: cell-based, Vibrio anguillarum. The method, then:
as §1

Data set [4] deals with V. aestuerianus (CIP 102971). Nature of the data set: microbe, parasite or virus in culture. Type of data set: cell-based, Vibrio aestueranius. The conditions noted are these: for MBC: read-out: MBC Vibrio aestueranius. The method, then: as §1
The test system of data set [5] is Vibrio alginolyticus (CIP 109819). Nature of the data set: microbe, parasite or virus in culture. Type of data set: cell-based. Here is the method:
as §1

The test system of data set [6] is Escherichia coli (CIP 54.8T). Nature of the data set: microbe, parasite or virus in culture. Type of data set: cell-based. The method, then:
as §1

The subject of data set [7] is Enteroccocus faecalis (CIP 76.117). Kind of data set: Liquid growth inhibition assay (MIC/MBC). Type of data set: cell-based. The conditions noted are these: Enterococcus faecalis, CIP76, poor broth, triplicate, interval [a]-[b], '-' = not active. Here is the method: as §1
The subject of data set [8] is Lactococcus garvieae (CIP 104369). Kind of data set: Liquid growth inhibition assay (MIC/MBC). Format: cell-based. The conditions noted are these: CIP104369, BHI, triplicate, interval [a]-[b], '-' = not active. Here is the method:
as §1

The test system of data set [9] is Halomonas aquamarina (CIP 105454T). Nature of the data set: Liquid growth inhibition assay (MIC/MBC). Format: cell-based. The conditions noted are these: Vreelandella aquamarina; HMB, starting OD600 0.001, 16 h, triplicate; interval [a]-[b]; '-' = not active. The method, then:
as §1

Data set [10] concerns Aeromonas salmonicida (CIP 103209T). Kind of data set: Liquid growth inhibition assay (MIC/MBC). The conditions noted are these: TSB, triplicate, interval [a]-[b], '-' = not active. Type of data set: cell-based. The method, then: as §1

NYWLLVLRRLLITKKVMWF [NF19]: in data set [1] (CIP 107715, 16 h), the “MBC Vibrio splendidus” value lay in the range of 10 to 20 µM and the “MIC Vibrio splendidus” value is 5 to 10 µM. Further, the “concentrations at which haemolytic” value in the data set with human red blood cells was 50 to 100 µM.
Turning to ASSFLTPRLSSLGKRSWAV [AV19], in [2] (CIP 73, 16 h), the “MBC Vibrio parahaemo-lyticus” value was in the range of 20 to 50 µM and the “MIC Vibrio parahaemo-lyticus” value is 10 to 20 µM. In addition, in data set [1] (CIP 107715, 16 h), the “MBC Vibrio splendidus” value lay in the range of 10 to 20 µM and the “MIC Vibrio splendidus” value was in the range of 10 to 20 µM. The “concentrations at which haemolytic” value with human red blood cells was in the range of 50 to 100 µM.
As for GFCNFMHLKPISRELRRELYGRTRRRRK [GK28], the “MBC Vibrio parahaemo-lyticus” value in [2] (CIP 73, 16 h) lay in the range of 10 to 20 µM. Also, the MIC is reported as not above 5 µM in [2] (CIP 73, 16 h); not above 5 µM in data set [1] (CIP 107715, 16 h, read-out: MIC Vibrio splendidus); not above 5 µM in data set [5] (CIP 109819, 16 h); not above 5 µM in data set [6] (CIP 54, 16 h). Besides, the “MBC Vibrio anguillarum” value in [3] (CIP 64, 16 h) lay within 20 to 50 µM. Also, the “MIC Vibrio anguillarum” value in data set [3] (CIP 64, 16 h) was in the range of 10 to 20 µM. Also, the MBC is listed as not above 5 µM in [1] (CIP 107715, 16 h, read-out: MBC Vibrio splendidus) and more than 50 µM in data set [4] (CIP 102971, 16 h). For the same compound, the “MIC Vibrio aestueranius” value in data set [4] (CIP 102971, 16 h) was in the range of 10 to 20 µM. Besides, the “MBC Vibrio alginolyticus” value in [5] (saline poor broth, triplicate, interval [a]-[b], b = first concentration that killed 100% of the bacteria, '-' = not active) lay within 20 to 50 µM. For the same compound, in [6] (CIP 54, 16 h), the “MBC Escherichia coli” value fell in the range of 20 to 50 µM.
Turning to `CN(C)[C@@H]1C(O)=C(C(N)=O)C(=O)[C@@]2(O)C(O)=C3C(=O)c4c(O)cccc4[C@@](C)(O)[C@H]3[C@H](O)[C@@H]12` [Ox, Oxytetracycline], the MIC in data set [2] (Vibrio parahaemolyticus, CIP73, saline poor broth, starting OD600 0.001, 16 h, triplicate, interval [a]-[b], '-' = not active) is not above 5 µM; in [2] (saline poor broth, starting OD600 0.001, 16 h, triplicate, interval [a]-[b], '-' = not active), not above 5 µM; in [3] (Vibrio anguillarum, CIP64, saline poor broth, starting OD600 0.001, 16 h, triplicate, interval [a]-[b], '-' = not active) it was not above 5 µM; in data set [1] (Vibrio splendidus, CIP107715, saline poor broth, starting OD600 0.001, 16 h, triplicate, interval [a]-[b], '-' = not active), not above 5 µM; in data set [1] (saline poor broth, starting OD600 0.001, 16 h, triplicate, interval [a]-[b], '-' = not active, read-out: MIC Vibrio splendidus) it was not above 5 µM; in data set [7] (starting OD600 0.001, 16 h) it was not above 5 µM. Besides, the MIC in [8] (starting OD600 0.001, 16 h) is not above 5 µM; in [9], more than 10 µM; in data set [10] (starting OD600 0.001, 16 h), not above 5 µM; in data set [4] (Vibrio, CIP102971, saline poor broth, starting OD600 0.001, 16 h, triplicate, interval [a]-[b], '-' = not active, read-out: MIC Vibrio aestueranius), not above 5 µM; in data set [5] (Vibrio alginolyticus, CIP109819, saline poor broth, starting OD600 0.001, growth monitored 16 h, triplicate, interval [a]-[b], b = first concentration with 100% growth inhibition, peptides 5-50 µM, pairs 5-20 µM, oxytetracycline 5 and 10 µM, '-' = not active), not above 5 µM; in data set [5] (saline poor broth, starting OD600 0.001, growth monitored 16 h, triplicate, interval [a]-[b], b = first concentration with 100% growth inhibition, peptides 5-50 µM, pairs 5-20 µM, oxytetracycline 5 and 10 µM, '-' = not active) it was not above 5 µM. Besides, the MIC in data set [6] (Escherichia coli, CIP54, poor broth, starting OD600 0.001, 16 h, triplicate, interval [a]-[b], '-' = not active) is not above 5 µM. In addition, the MBC in data set [2] (Vibrio parahaemolyticus, CIP73, saline poor broth, triplicate, interval [a]-[b], '-' = not active, read-out: MBC Vibrio parahaemo-lyticus) is not above 5 µM; in data set [3] (Vibrio anguillarum, CIP64, saline poor broth, triplicate, interval [a]-[b], '-' = not active), not above 5 µM; in data set [1] (Vibrio splendidus, CIP107715, saline poor broth, triplicate, interval [a]-[b], '-' = not active) it was not above 5 µM; in data set [7] it was 5 to 10 µM; in [8] it was more than 10 µM; in data set [10], not above 5 µM. The MBC was not above 5 µM in data set [4] (Vibrio, CIP102971, saline poor broth, triplicate, interval [a]-[b], '-' = not active); not above 5 µM in [5] (Vibrio alginolyticus, CIP109819, saline poor broth, triplicate, interval [a]-[b], b = first concentration that killed 100% of the bacteria, '-' = not active); not above 5 µM in data set [6] (Escherichia coli, CIP54, poor broth, triplicate, interval [a]-[b], '-' = not active).
